The text below walks through data of patent US8865672B2, “Prevention of tissue ischemia and related methods” (The United States of America, as represented by the …, priority 2006, dated 2014).

Entries after “also recorded” stand apart in the source; their conditions may differ.

Assay [1] relates to vascular cell outgrowth from muscle explants. The assay can be described thus: Explant invasion assay in 3D collagen. Type of assay: cell-based, mouse. The note with it: TSP1 1 μg/ml. Here is the method: Muscle biopsies from the pectoralis major muscle of 8 to 12 week old wild type or transgenic mice were harvested and explanted into 100 μl of type I collagen gel in 96-well tissue culture plates as described (Isenberg et al., Matrix Biol 24:110-123, 2005). Following gelation, the embedded explants were overlayed with 75 μl of EGM+2% FCS in the presence or absence of a dose range of DETA/NO (0.01-1000 μM) and other indicated treatments and then incubated at 37° C. and 5% CO2 for 7 days, at which time maximum vascular cell migration through the matrix was measured.

The subject of assay [2] is myosin light chain-2 (MLC) in HAVSMC. Description: Myosin light chain phosphorylation in VSMC. Format: cell-based, human. The following applies: S1P 100 nM, DEA/NO 10 μM, TSP1 2.2 nM. As to the method: VSMC were plated at 90% confluence and grown in smooth muscle growth media containing 2% FBS overnight. To stimulate MLC phosphorylation, sphingosine-1-phosphate (SIP; Biomol International, Plymouth, Pa.) was added at a final concentration of 100 nM. The nitric oxide donor DEA/NO was added at a final concentration of 10 μM. For TSP1 pretreatment, cells were incubated with 2.2 nM TSP1 before addition of SIP or DEA/NO. Cells were subsequently washed twice with PBS and lysed immediately in 1×SDS sample buffer containing 10 μg/mL leupeptin, 10 μg/mL aprotinin, 1 mM Na3VO4, and 40 mM NaF. Lysates prepared in the SDS sample buffer described above were electrophoresed in 4-12% BisTris NuPAGE gels and transferred to PVDF membranes prior to immunoblotting with rabbit polyclonal antibodies against myosin light chain-2 (MLC) and phospho-MLC2 (T18/S19, Cell Signaling Technology, Danvers, Mass.).

The test system of assay [3] is Rap1. Description: Rap1 pulldown assay in platelets. Type of assay: cell-based, human. The note with it: thrombin. As to the method: Platelets were diluted to 5×10^8 platelets/mL in Tyrode's buffer and treated with various reagents for the indicated times. Immediately following treatment, platelets were pelleted at 13,000 g for 30 seconds at 4° C. and resuspended in ice-cold lysis buffer containing 20 mM HEPES (pH 7.5), 100 mM NaCl, 10 mM EGTA, 20 mM MgCl2, 8 mM α-glycerophosphate, 1% Triton X-100, 1 mM phenylmethylsulfonylfluoride, 40 mM NaF, 1 mM Na3VO4, 10 μg/mL aprotinin, and 10 μg/mL leupeptin. Lysates were centrifuged at 13,000 g for 5 minutes at 4° C. and the supernatants were incubated for 15 minutes on a tumbler at 4° C. with glutathione Sepharose 4B beads (Amersham) prebound with a GST-Ral GDS RBD fusion protein (kind gift of J. Silvio Gutkind, NIH, Bethesda, Md.). Bead complexes were washed by centrifugation at 6,000 g for 30 seconds at 4° C. followed by resuspension in 0.5 mL lysis buffer; 2 washes were performed for each sample. After the second wash, beads were resuspended in an equal volume of 2×SDS sample buffer and stored at −20° C. For Western analysis, bead-bound proteins in sample buffer were boiled for 10 minutes and subjected to electrophoresis on NuPAGE 10% Bis-Tris gels (Invitrogen, Carlsbad, Calif.), transferred to Immobilon-P PVDF membranes (Millipore, Billerica, Mass.), and blotted with rabbit polyclonal anti-Rapt (sc-65; Santa Cruz Biotechnology, Santa Cruz, Calif.).

In assay [4] the target is T1, cGK-I (Homo sapiens, UniProt Q13976).
T1 construct: endogenous in cells; host or cells: washed human platelets, treated intact, then lysed
T1 sequence (Q13976 1-686 isoform Q13976-2): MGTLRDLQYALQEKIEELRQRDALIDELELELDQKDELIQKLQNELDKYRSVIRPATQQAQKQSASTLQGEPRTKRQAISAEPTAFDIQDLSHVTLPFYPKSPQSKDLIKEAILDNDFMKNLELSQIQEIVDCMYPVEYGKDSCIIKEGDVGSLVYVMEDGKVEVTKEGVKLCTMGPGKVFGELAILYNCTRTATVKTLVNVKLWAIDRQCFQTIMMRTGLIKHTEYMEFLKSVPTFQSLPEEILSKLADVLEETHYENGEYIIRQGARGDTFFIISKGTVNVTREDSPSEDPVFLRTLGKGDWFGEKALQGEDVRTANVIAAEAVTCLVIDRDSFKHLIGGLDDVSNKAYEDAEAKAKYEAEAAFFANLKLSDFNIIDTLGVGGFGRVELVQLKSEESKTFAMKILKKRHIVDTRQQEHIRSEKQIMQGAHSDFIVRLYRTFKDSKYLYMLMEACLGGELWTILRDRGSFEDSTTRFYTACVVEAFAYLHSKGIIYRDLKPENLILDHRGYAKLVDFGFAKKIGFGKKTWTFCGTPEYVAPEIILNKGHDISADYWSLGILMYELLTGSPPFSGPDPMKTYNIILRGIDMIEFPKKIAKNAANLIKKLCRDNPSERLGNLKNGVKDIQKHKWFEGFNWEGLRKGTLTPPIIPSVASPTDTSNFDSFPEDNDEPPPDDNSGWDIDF
The assay can be described thus: cGK in vitro kinase assay of platelet lysates. Type of assay: biochemical. Here is the method: Platelets were washed as described above and resuspended in Tyrode's buffer (3×10^8 platelets/mL). Platelets were preincubated with TSP1 (2.2 nM) or Rp-8-pCPT-cGMP for 15 minutes prior to treatment with 8-Br-cGMP (100 μM) or NO (DEA/NO 10 μM) for 2 minutes. Treatment was stopped by placing the platelets on ice. Immediately following treatment, platelets were pelleted by centrifugation at 13,000×g at 4° C. for 15 seconds and resuspended in a lysis buffer containing 10 mM HEPES (pH 7.4), 1 mM EDTA, 1 mM 3-Isobutyl-1-methylxanthine, 125 mM KCl, 1 mM phenylmethysulfonylfluoride, 1 μg/ml aprotinin, and 1 μg/ml leupeptin. Resuspended platelets were sonicated on ice 3 times for 10 seconds each before centrifugation at 13,000×g for 5 minutes at 4° C. 100 μg lysate from each sample was incubated at 25° C. for 20 minutes with kinase buffer (150 μM Arg-Lys-Arg-Ser-Arg-Ala-Glu (SEQ ID NO: 17) peptide substrate (Bachem, King of Prussia, Pa.)), 10 mM HEPES pH 7.4, 35 mM β-glycerophosphate, 4 mM MgCl2, 5 μM Rp-8 pCPT-cAMPS, 0.5 mM EDTA, […] [γ-32P]ATPS (Sigma-Aldrich, St. Louis, Mo.)). Kinase assay reactions were terminated by spotting 50 μL of reaction mixture onto nitrocellulose. Nitrocellulose spots were washed 5 times each with 100 μL of 0.5% phosphoric acid before analysis with a scintillation counter.

Take “TSP1: thrombospondin-1 prepared from human platelets”: the figures for the “ability to antagonize NO-stimulated vascular outgrowth” value in assay [1] (CD36-null explants) and in assay [1] (CD47-null explants) were “preserved” and “lost”, respectively. Moreover, in assay [2], the “MLC dephosphorylation induced by NO” value was “partially restored MLC phosphorylation”. In addition, the “Rap1 activation (GTP loading)” value in assay [3] is given as “reversed the inhibition of Rap1 activation; also recorded: did not increase Rap1 activation”. In assay [4] (activation via sGC using DEA/NO in intact platelets), the “32P-incorporation into cGK-I selective peptide” value is “prevented”. Besides, the “32P incorporation into cGK-I selective peptide” value in assay [4] (stimulated by 100 μM 8Br-cGMP, TSP1 2.2 nM) is reported as “inhibited 32P incorporation”.
